From US12636370B2, “Combination therapy for treatment of cancer” (Institute For Cancer Research, priority 2019, dated 2026)

Experiments:
Assay type in all cases: cell-based
kinome = assay: MIB-MS kinome profiling, OVCAR8 cells; settings: 48 hours
OVCAR8 cells [1] = assay: Single-run proteome analysis and RNA-seq, OVCAR8 cells; settings: 48 hours, single-run proteome analysis
Protocol: Enrichment maps of pathways repressed by short-term BBD generated from single-run proteome profiles of OVCAR8 cells treated with BBDs (MZ1 or ARV825) for 48 hours were prepared (data not shown). Statistical differences in protein log 2 LFQ z-scores comparing BBDs or BBIs to control treated cells was determined by paired T-Test Benjamini-Hochberg adjusted p values at FDR of <0.05 using Perseus Software. […] Enrichment maps were generated in Cytoscape using the Enrichment Map app v2.2.1. […] Statistical differences in protein log 2 LFQ z-scores comparing BBDs or BBIs to control treated cells was determined.

[2] = system: BET proteins (BRD2, BRD4); assay: Western blot of BET proteins, KURAMOCHI, COV362 and OVCAR5 MZ1-R cells
[3] = system: translation markers, RNA pol II, MYC; assay: Western blot of translation, BRD4-targets and MYC signaling, OVCAR8 cells; settings: 500 nM, 48 hours
OVCAR8 cells [4] = assay: CellTiter-Glo cell viability, OVCAR8 parental cells; settings: dose escalation, 5 days
OVCAR8 ARV-R cells [5] = assay: CellTiter-Glo cell viability, OVCAR8 ARV-R cells; settings: escalating doses, 5 days
PEO1 JQ1-R cells = assay: CellTiter-Glo cell viability, PEO1 JQ1-R cells; settings: escalating doses, 5 days
[6] = system: BET proteins (BRD2, BRD3, BRD4); assay: Western blot of BET proteins, OVCAR8 ARV-R cells
OVCAR8 ARV-R cells [7] = assay: Apoptosis by cleaved PARP Western blot, OVCAR8 ARV-R cells
[8] = system: RTKs FGFR1, FGFR2, FGFR3, IGF1R and ERBB4; assay: Western blot of RTK protein levels, KURAMOCHI and COV362 cells; settings: 500 nM, 48 hours
OVCAR8 JQ1-R cells [9] = assay: Apoptosis by cleaved PARP Western blot, OVCAR8 JQ1-R cells
[10] = system: BET proteins (BRD2, BRD3, BRD4); assay: Western blot of BET protein levels, OVCAR8 parental cells
BRD4 = target: T1, BRD4 (Homo sapiens, UniProt O60885); assay: Western blot of BRD4 protein, SW48 K-ras G12D cells; settings: 4 hours
T1 construct: endogenous in cells
Protocol: (§1) K-ras mutations promote resistance to BET protein degraders that can be overcome by MTORC1 inhibitors. Briefly, isogenic SW48 colorectal cancer cells expressing wild-type or mutant (G12D) K-ras were treated with increasing doses of MZ1 and cell viability was assessed. Expression of K-ras mutants promote resistance to MZ1 therapy (FIG. 18, Panel A). Immunoblot analysis depicts activation of translation by forced expression of K-ras G12D mutants in SW48 cells (FIG. 18, Panel B). SW48 cells expressing wild-type or K-ras G12D mutants were treated with DMSO, 2 μM RAD001, increasing doses of MZ1 or 2 μM RAD001+increasing doses of MZ1 for 4 hours and BRD4 protein assessed by Western blot. A Cell-Titer Glo assay was performed for cell viability of SW48 (KRAS G12D) cell lines treated with increasing concentrations of RAD001, MZ1 or the combination of RAD001 and MZ1 and cultured for 120 hours. Data were analyzed as % cell viability of DMSO control, presented as means of 3 independent assays. […] Data were analyzed as % cell viability of DMSO control, presented as means of 3 independent assays. […]

OVCAR8 JQ1-R cells [11] = assay: CellTiter-Glo cell viability, OVCAR8 JQ1-R cells; settings: escalating doses, 5 days
OVSAHO cells = assay: Combination treatment of OVSAHO cells; settings: BRD4 overexpressing HGSOC cell line OVSAHO
[12] = system: BET proteins (BRD2, BRD3, BRD4); assay: Western blot of BET proteins and BRD4 targets, OVCAR8 MZ1-R cells; settings: Western blot
SW48 (KRAS WT) cells = assay: Cell-Titer Glo cell viability, SW48 (KRAS WT) cells
Protocol: as §1

BET proteins, FOSL1, MYC = assay: Western blot of BET proteins and BRD4 targets, JQ1-R cells
[13] = system: KURAMOCHI, COV362 and OVCAR5 MZ1-R cells; assay: CellTiter-Glo cell viability, KURAMOCHI, COV362 and OVCAR5 MZ1-R cells; settings: COV362 and OVCAR5, escalating doses, 5 days
[14] = system: RTKs, EGFR, ERBB2, ERBB3, FGFR1, and IGF1R; assay: Western blot of kinase (RTK) protein levels, OVCAR8 cells; settings: 500 nM, 48 hours
OVCAR8 MZ1-R cells = assay: CellTiter-Glo cell viability, OVCAR8 MZ1-R cells; settings: OVCAR8 MZ1-R, escalating doses, 5 days
SW48 (KRAS G12D) cells = assay: Cell-Titer Glo cell viability, SW48 (KRAS G12D) cells
Protocol: as §1

## Cc1ncsc1-c1ccc(CNC(=O)[C@@H]2C[C@@H](O)CN2C(=O)[C@@H](NC(=O)COCCOCCOCCNC(=O)C[C@@H]2N=C(c3ccc(Cl)cc3)c3c(sc(C)c3C)-n3c(C)nnc32)C(C)(C)C)cc1 [MZ1]
kinome
  kinase MIB-binding: uniquely increased MIB-binding of INSR, CDK7, EPHA4 and EPHA2
OVCAR8 cells [1]
  global protein level changes: uniquely downregulated proteins involved in ribosome and translation signaling
[2]
  BET protein levels: failed to mediated degradation of BET proteins
[3]
  MYC protein levels: reduced MYC protein levels
[3]; relative to cis-MZ1 or JQ1
  phosphorylation of translation markers: distinctly reduced phosphorylation of FOX01/3 (T24/32), P70S6 Kinase (T389), pEIF4E (S209) and p4EBP1 (T37/46)
OVCAR8 cells [4]
  GI50: 142 nM
OVCAR8 ARV-R cells [5]
  cell viability of ARV-R cells compared with parental cells: failed to reduce BET proteins, block growth or induce apoptosis
PEO1 JQ1-R cells
  cell killing / viability: can be killed by treatment with BET PROTAC MZ1
[6]
  BET protein levels: failed to reduce BET proteins, block growth or induce apoptosis
OVCAR8 ARV-R cells [7]
  apoptosis: failed to reduce BET proteins, block growth or induce apoptosis
[8]
  RTK protein levels: downregulation of RTKs protein levels such as FGFR1, FGFR2, FGFR3, IGF1R and ERBB4
OVCAR8 JQ1-R cells [9]
  apoptosis: induced apoptosis
[10]
  BET protein levels: degraded BET proteins in a concentration-dependent manner
BRD4
  BRD4 degradation: impaired the degradation of BRD4
OVCAR8 JQ1-R cells [11]
  cell viability of JQ1-R cells: inhibited cell viability
OVSAHO cells
  dose sufficient to induce sensitivity towards GSK529A, lapatinib or RAD001: 10 nM
[12]
  BET protein levels: insufficient to degrade BRD2, BRD3 or BRD4
SW48 (KRAS WT) cells; SW48 K-Ras WT cells, single agent, low concentrations
  inhibition of viability: > 50%
SW48 (KRAS WT) cells; SW48 parental (wild-type K-Ras) cells
  GI50: 0.63 nM
BET proteins, FOSL1, MYC
  BET protein levels: degraded BET proteins
  BRD4 target (FOSL1, MYC) protein levels: reduced MYC/FOSL1 protein levels
[13]
  cell viability / growth of MZ1-R cells compared with parental cells: rightward shift
[14]
  RTK protein levels: MZ1-specific reduction of RTKs, EGFR, ERBB2, ERBB3, FGFR1, and IGF1R
OVCAR8 MZ1-R cells
  cell viability of MZ1-R cells compared with parental cells: rightward shift
SW48 (KRAS G12D) cells; SW48 cells harboring K-Ras G12D mutation
  GI50: 63 nM
SW48 (KRAS G12D) cells; SW48 isogenic cells
  shift in GI50, K-Ras mutant vs parental cells: 10 fold
